Data published in article PMC10518257 (Nature Cancer, 2023).
“And” between values parts separate entries of the source, which are not always exact repeats. Equal values may be shown once.

Columns and labels:
LUAD-0057AS1 PDX = test: PDX efficacy study; settings: for Change in Tumor Volume: end of study, individual tumors
ECLC5 xenografts = test: Subcutaneous xenograft efficacy study; settings: for Change in Tumor Volume: end of study, individual tumors
[1] = 50 mg/kg BID, day 14, individual animals
[2] = 100 mg/kg QD, day 0, individual animals
[3] = 100 mg/kg QD, day 7, individual animals
[4] = 100 mg/kg QD, day 14, individual animals

In the case of `COCc1ccc(NC(=O)c2c(C#CCN3CCOCC3)n(C3(C)CC3)c3ncnc(N)c23)cc1` [Vepafestinib, 4-amino-N-[4-(methoxymethyl)phenyl]-7-(1-methylcyclopropyl)-6-[3-(morpholin-4-yl)prop-1-yn-1-yl]-7H-pyrrolo[2,3-d]pyrimidine-5-carboxamide], the Tumor volume (LUAD-0057AS1 PDX; [1]) is reported as 89.72 mm3 and 88.25 mm3 (2×) and 78.99 mm3 and 76.27 mm3 and 80.7 mm3 and 72.18 mm3, the Tumor volume (LUAD-0057AS1 PDX; 50 mg/kg BID, day 19, individual animals) is reported as 80.35 mm3 and 77.63 mm3 and 73.3 mm3 (2×) and 71.99 mm3 and 88.25 mm3 and 72.18 mm3 and the Tumor volume (LUAD-0057AS1 PDX; 50 mg/kg BID, day 23, individual animals) is reported as 80.35 mm3 and 82.12 mm3 and 74.61 mm3 and 73.3 mm3 and 71.99 mm3 and 109.29 mm3. The “Change in Tumor Volume” value (LUAD-0057AS1 PDX; 50 mg/kg BID) was -49.1416% and -46.5865% and -45.4098% and -45.6037% and -52.0319% and -45.807% and -21.5096% and -48.8204%, the tumor shrinkage (LUAD-0057AS1 PDX; 100 mg per kg QD) was 48% ± 1% and the “Area Under Curve of tumor growth, Mean” value (LUAD-0057AS1 PDX; 100 mg/kg QD) was -1469. For the same molecule, the Tumor volume (LUAD-0057AS1 PDX; [2]) was 145.84 mm3 (3×) and 143.69 mm3 and 141.32 mm3 and 152.81 mm3 and 139.24 mm3 and 148.22 mm3, the Tumor volume (LUAD-0057AS1 PDX; 100 mg/kg QD, day 3, individual animals) was 79.29 mm3 and 83.83 mm3 and 80.7 mm3 (2×) and 91.87 mm3 (3×) and 95.24 mm3 and the Tumor volume (LUAD-0057AS1 PDX; [3]) was 71.99 mm3 and 77.87 mm3 and 69.14 mm3 and 72.18 mm3 and 69.38 mm3 and 74.61 mm3 and 80.7 mm3 and 70.69 mm3. For the same molecule, the Tumor volume (LUAD-0057AS1 PDX; 100 mg/kg QD, day 10, individual animals) was 71.99 mm3 and 80.89 mm3 and 66.35 mm3 and 72.18 mm3 and 69.38 mm3 and 74.61 mm3 and 77.87 mm3 and 70.69 mm3, the Tumor volume (LUAD-0057AS1 PDX; [4]) was 77.63 mm3 (2×) and 83.83 mm3 and 74.61 mm3 (2×) and 69.38 mm3 and 87.03 mm3 and 75.92 mm3 and the Tumor volume (LUAD-0057AS1 PDX; 100 mg/kg QD, day 19, individual animals) was 68.09 mm3 and 80.7 mm3 and 73.3 mm3 (2×) and 77.63 mm3 and 74.61 mm3 (2×) and 78.99 mm3. For the same molecule, the “Change in Tumor Volume” value (LUAD-0057AS1 PDX; 100 mg/kg QD) was -49.7394% and -48.9874% and -48.1319% and -52.0319% and -45.2241% and -47.703% and -43.6917% and -45.79%, the “Area Under Curve of tumor growth, Mean” value (ECLC5 xenografts; 25 mg/kg BID) was -1045 and the Tumor volume (ECLC5 xenografts; 25 mg/kg BID, day 0, individual animals) was 91.87 mm3 (2×) and 88.56 mm3 (2×) and 85.31 mm3. For the same molecule, the Tumor volume (ECLC5 xenografts; 25 mg/kg BID, day 4, individual animals) was 74.9 mm3 (2×) and 77.87 mm3 and 71.99 mm3 and 69.38 mm3, the Tumor volume (ECLC5 xenografts; 25 mg/kg BID, day 7, individual animals) was 60.32 mm3 (2×) and 59.11 mm3 and 58.99 mm3 (2×) and the Tumor volume (ECLC5 xenografts; 25 mg/kg BID, day 11, individual animals) was 60.32 mm3 and 48.77 mm3 and 55.52 mm3 and 54.07 mm3 (2×). The Tumor volume (ECLC5 xenografts; 25 mg/kg BID, day 14, individual animals) was 60.32 mm3 and 48.77 mm3 and 55.52 mm3 and 54.07 mm3 (2×), the “Change in Tumor Volume” value (ECLC5 xenografts; 25 mg/kg BID) was -43.3221% and -50.8017% and -52.5743% and -65.5492% and -27.8004% and the tumor regression (ECLC5 xenografts; 50 mg per kg BID) was 100% ± 0%. The “Area Under Curve of tumor growth, Mean” value (ECLC5 xenografts; 50 mg/kg BID) was -1486, the Tumor volume (ECLC5 xenografts; 50 mg/kg BID, day 0, individual animals) was 83.83 mm3 and 88.56 mm3 (2×) and 87.03 mm3 and 85.31 mm3 and the Tumor volume (ECLC5 xenografts; 50 mg/kg BID, day 4, individual animals) was 68.07 mm3 and 72.18 mm3 (2×) and 66.63 mm3 (2×). The Tumor volume (ECLC5 xenografts; 50 mg/kg BID, day 7, individual animals) was 39.61 mm3 and 59.11 mm3 and 58.99 mm3 and 61.52 mm3 and 53.18 mm3, the Tumor volume (ECLC5 xenografts; 50 mg/kg BID, day 11, individual animals) was 36.97 mm3 and 42.6 mm3 and 49.37 mm3 and 48.41 mm3 and 48.77 mm3 and the Tumor volume (ECLC5 xenografts; [1]) was 36.97 mm3 and 42.6 mm3 and 41.37 mm3 and 45.5 mm3 and 44.53 mm3. The “Change in Tumor Volume” value (ECLC5 xenografts; 50 mg/kg BID) was -100%, the “Area Under Curve of tumor growth, Mean” value (ECLC5 xenografts; 50 mg/kg QD) was -1322 and the Tumor volume (ECLC5 xenografts; 50 mg/kg QD, day 0, individual animals) was 85.31 mm3 and 83.83 mm3 and 88.56 mm3 and 91.87 mm3 and 90.28 mm3. For the same molecule, the Tumor volume (ECLC5 xenografts; 50 mg/kg QD, day 4, individual animals) was 72.18 mm3 (2×) and 75.04 mm3 and 68.07 mm3 and 69.38 mm3, the Tumor volume (ECLC5 xenografts; 50 mg/kg QD, day 7, individual animals) was 50.89 mm3 and 53.18 mm3 and 49.83 mm3 (2×) and 48.77 mm3 and the Tumor volume (ECLC5 xenografts; 50 mg/kg QD, day 11, individual animals) was 52.07 mm3 (2×) and 57.91 mm3 and 49.83 mm3 and 48.77 mm3. The Tumor volume (ECLC5 xenografts; 50 mg/kg QD, day 14, individual animals) was 52.07 mm3 (2×) and 57.91 mm3 and 48.77 mm3 and 62.73 mm3, the “Change in Tumor Volume” value (ECLC5 xenografts; 50 mg/kg QD) was -57.7775% and -61.9945% and -68.4282% and -71.9277% and -43.6309% and the tumor regression (ECLC5 xenografts; 100 mg per kg QD) was 90.3% ± 4%. For the same molecule, the “Area Under Curve of tumor growth, Mean” value (ECLC5 xenografts; 100 mg/kg QD) was -1970, the Tumor volume (ECLC5 xenografts; [2]) was 91.87 mm3 (2×) and 88.56 mm3 and 85.31 mm3 (2×) and the Tumor volume (ECLC5 xenografts; 100 mg/kg QD, day 4, individual animals) was 47.71 mm3 and 52.07 mm3 (2×) and 49.83 mm3 and 50.97 mm3. For the same molecule, the Tumor volume (ECLC5 xenografts; [3]) was 38.79 mm3 and 35.19 mm3 and 30.11 mm3 (2×) and 25.42 mm3, the Tumor volume (ECLC5 xenografts; 100 mg/kg QD, day 11, individual animals) was 38.79 mm3 and 35.19 mm3 and 26.94 mm3 (2×) and 30.11 mm3 and the Tumor volume (ECLC5 xenografts; [4]) was 34.35 mm3 and 35.19 mm3 and 26.94 mm3 and 28.5 mm3 and 30.11 mm3. For the same molecule, the “Change in Tumor Volume” value (ECLC5 xenografts; 100 mg/kg QD) was -85.621% and -100% and -81.7724% and -84.0971%.
